These results are taken from patent publication US8362263B2 (CJ Cheiljedang Corporation, priority 2006, dated 2013).

Each structure is given as a SMILES string. Counter-ions that a name gives are not always drawn.

Data set [1] in a line: Thermal stability in solid state, acceleration test at 60° C. (HPLC content). The class given is physicochemical. The procedure:
(§1) <HPLC Analysis Condition> • Detector: UV absorbance (at 237 nm), • Column: Octadecyl silica gel C18 (4.6 mm×150 mm, 5[…]), • mobile phase: Potassium dihydrogen phosphate monobasic (0.03 M): Methanol=4:6 (by volume) • Flow rate: 1.5 ml/min.

A short description of data set [2]: Thermal stability in liquid state (distilled water, 25° C., dark, 4 weeks). The format is physicochemical. The note with it: dissolved in distilled water, 4 weeks at 25° C. in the dark. The procedure: as §1
The observation was made under the same conditions as in the HPLC analysis for evaluating the thermal stability of samples in a solid state.

A short description of data set [3]: Hygroscopicity test (K.F. water content under various humidity). To be noted: 25° C.; for hygroscopicity (in words): various humidity conditions. The class given is physicochemical.
Data set [4] in a line: Photostability test (ICH photostable chamber, 25° C., 4 weeks, HPLC content). The format is physicochemical. To be noted: 4 weeks at 25° C., light source. Here is the method:
as §1
An observation was made of content (HPLC) change under the same conditions as in the HPLC analysis for evaluating the thermal stability of samples.

A further data set can be described thus: physchem. The note with it: 25 °C.

As to `CCOC(=O)C1=C(COCCN)NC(C)=C(C(=O)OC)C1c1ccccc1Cl.O=C(O)CCCCC(=O)O` (racemic) [C. Ex. 2, crystalline racemic amlodipine adipic acid salt anhydrous, reference compound], the “content change in 60° C. acceleration test (in words)” value in data set [1] is on record as “little change in content”. In addition, the “content change in liquid state (in words)” value in data set [2] was “no significant content changes”. The “water content (K.F. moisture %)” value in data set [3] (25% RH, Post 1 Week) is 0.10%; in data set [3] (60% RH, Post 1 Week) it was 0.09%; in data set [3] (75% RH, Post 1 Week) it was 0.15%; in data set [3] (95% RH, Post 1 Week), 0.17%; in data set [3] (Initial), 0.10%. For the same compound, the “hygroscopicity (in words)” value in data set [3] is on record as “no hygroscopicity”.
Consider `CCOC(=O)C1=C(COCCN)NC(C)=C(C(=O)OC)[C@@H]1c1ccccc1Cl.CCOC(=O)C1=C(COCCN)NC(C)=C(C(=O)OC)[C@@H]1c1ccccc1Cl.O.O.O.O.O.O=S(=O)(O)c1ccccc1.O=S(=O)(O)c1ccccc1` [C. Ex. 1, S-(−)-amlodipine besylate 2.5 hydrate, reference compound], for which, in data set [1], the “content change in 60° C. acceleration test (in words)” value is recorded as “little change in content”. Also, in data set [2], the “content change in liquid state (in words)” value is reported as “no significant content changes”. Further, the “water content (K.F. moisture %)” value in data set [3] (25% RH, Post 1 Week) amounted to 7.55%; in data set [3] (60% RH, Post 1 Week), 7.6%; in data set [3] (75% RH, Post 1 Week), 7.85%; in data set [3] (95% RH, Post 1 Week), 7.9%; in data set [3] (Initial) it was 7.8%. Also, in data set [3], the “hygroscopicity (in words)” value is “high in water content from the beginning”. In addition, in data set [4], the “appearance on light exposure” value is recorded as “turned yellow from white”.
As to `CCOC(=O)C1=C(COCCN)NC(C)=C(C(=O)OC)[C@@H]1c1ccccc1Cl` [Ex. 1, crystalline S-(−)-amlodipine adipic acid salt anhydrous], the “content change in 60° C. acceleration test (in words)” value in data set [1] was “little change in content”. The solubility in “physchem” (pH 1.2, simulated gastric fluid) is 81.7 mg/mL; in the data set “physchem” (pH 4, aqueous buffer), 57.1 mg/mL; in “physchem” (pH 6.8, aqueous buffer) it was 41.3 mg/mL; in “physchem” (water), 18.6 mg/mL. In addition, the “content change in liquid state (in words)” value in data set [2] is given as “no significant content changes”. For the same compound, the “water content (K.F. moisture %)” value in data set [3] (25% RH, Post 1 Week) turned out to be 0.15%; in data set [3] (60% RH, Post 1 Week), 0.15%; in data set [3] (75% RH, Post 1 Week), 0.14%; in data set [3] (95% RH, Post 1 Week), 0.16%; in data set [3] (Initial), 0.15%. For the same compound, the “hygroscopicity (in words)” value in data set [3] was “no hygroscopicity”.
Regarding `CCOC(=O)C1=C(COCCN)NC(C)=C(C(=O)OC)[C@@H]1c1ccccc1Cl` [Ex. 2, hygroscopic crystalline S-(−)-amlodipine adipic acid salt anhydrous], the “water content (K.F. moisture %)” value turned out to be 0.8% in data set [3] (25% RH, Post 1 Week); 0.9% in data set [3] (60% RH, Post 1 Week); 1.3% in data set [3] (75% RH, Post 1 Week); 1.62% in data set [3] (95% RH, Post 1 Week); 1.62% in data set [3] (95% RH, Post 1 Week, listed as Example 2); 0.7% in data set [3] (Initial).
